For data set [1], the system named is PC-3. Description: Cytotoxicity against human PC3 cells after 72 hrs by MTT assay. The format is functional, cell-based. On the technique in general: Tetrazolium assays rely on reduction of a dye to a coloured formazan, in cell work by metabolically active cells.
For data set [2], the system named is MIA PaCa-2. Description: Cytotoxicity against human MIAPaCa2 cells after 72 hrs by MTT assay. The format is functional, cell-based.
The test system of data set [3] is BJ. Description: Cytotoxicity against human BJ cells after 72 hrs by MTT assay. The format is cell-based. Particulars: human, bj; call rule not given here.
The test system of data set [4] is HeLa. Description: Cytotoxicity against human HeLa cells after 72 hrs by MTT assay. In kind it is functional, cell-based.
Data set [5] relates to Jurkat. Description: Cytotoxicity against human Jurkat cells after 72 hrs by XTT assay. In kind it is functional, cell-based.
The subject of data set [6] is A-375. Description: Cytotoxicity against human A375 cells after 72 hrs by MTT assay. The format is functional, cell-based.
For data set [7], the system named is MCF7. Description: Cytotoxicity against human MCF7 cells after 72 hrs by MTT assay. The format is functional, cell-based.
Data set [8] has as its system HT-29. Description: Cytotoxicity against human HT-29 cells after 72 hrs by MTT assay. In kind it is functional, cell-based. The note with it: HT-29, 72 h.

SMILES strings stand for the structures.

Experimental findings from ChEMBL document CHEMBL3784916, “Synthesis and anticancer activity of novel fluorinated asiatic acid derivatives” (Eur J Med Chem, 2016) are described below.

As to `COC(=O)CNC(=O)[C@]12CC[C@@H](C)[C@H](C)[C@H]1C1=CC[C@@H]3[C@@]4(C)C[C@@H](OC(C)=O)[C@H](OC(C)=O)[C@@](C)(COC(C)=O)[C@@H]4CC[C@@]3(C)[C@]1(C)CC2`, the Activity entry in data set [1], in data set [2], in data set [3], in data set [5], in data set [6] and in data set [7] was “Dose-dependent effect” each time. This compound displayed an IC50 in data set [4] of 0.98 µM.

In the case of `C[C@H]1[C@H](C)CC[C@@]23CC[C@]4(C)[C@](OC2=O)([C@H](F)C[C@@H]2[C@@]5(C)C[C@@H](O)OC[C@](C)(C=O)[C@@H]5CC[C@]24C)[C@H]13`, the Activity entry in data set [1], in data set [2], in data set [3], in data set [5], in data set [6] and in data set [7] was “Dose-dependent effect” throughout. The IC50 stood at 7.4 µM in data set [4] and 11.2 µM in data set [8].

For `CC(=O)OC[C@@]1(C)[C@@H]2CC[C@]3(C)[C@H](C[C@@H](F)[C@]45NC(=O)[C@@]6(CC[C@@H](C)[C@H](C)[C@H]64)CC[C@]53C)[C@@]2(C)C[C@@H](OC(C)=O)[C@@H]1OC(C)=O`, the Activity entry in data set [1], in data set [2], in data set [3], in data set [5], in data set [6] and in data set [7] was “Dose-dependent effect” throughout. The IC50 in data set [4] is 2.37 µM; in data set [8], 7.5 µM.

For `CC(=O)OC[C@]1(C)C=C(C=O)[C@@]2(C)[C@H]1CC[C@]1(C)[C@@H]2C[C@@H](F)[C@]23OC(=O)[C@@]4(CC[C@@H](C)[C@H](C)[C@H]42)CC[C@]31C`, the Activity entry in data set [1], in data set [2], in data set [3], in data set [5], in data set [6] and in data set [7] was “Dose-dependent effect” throughout. In addition, the figures for the IC50 in data set [4] and in data set [8] were 1.4 µM and 2.02 µM, respectively.

As for `C[C@H]1[C@H](C)CC[C@@]23CC[C@]4(C)[C@](OC2=O)([C@H](F)C[C@@H]2[C@@]5(C)C(C=O)=C[C@@](C)(CO)[C@@H]5CC[C@]24C)[C@H]13`, the Activity entry in data set [1], in data set [2], in data set [3], in data set [5], in data set [6] and in data set [7] was “Dose-dependent effect” throughout. Also, the results for the IC50 in data set [4] and in data set [8] were 1.08 µM and 1.28 µM, respectively.

Take `Cc1nccn1C(=O)OC[C@]1(C)C=C(C=O)[C@@]2(C)[C@H]1CC[C@]1(C)[C@@H]2C[C@@H](F)[C@]23OC(=O)[C@@]4(CC[C@@H](C)[C@H](C)[C@H]42)CC[C@]31C`: the Activity result in data set [1], in data set [2], in data set [3], in data set [5], in data set [6] and in data set [7] was “Dose-dependent effect” each time. Besides, the IC50 in data set [4] was 1.63 µM; in data set [8] it was 2.8 µM.

On to `CC(=O)OC[C@@]1(C)[C@@H]2CC[C@]3(C)[C@H](C[C@@H](F)[C@]45[C@@H]6[C@@H](C)[C@H](C)CC[C@@]6(CC[C@]43C)C(=O)N5C)[C@@]2(C)C[C@@H](OC(C)=O)[C@@H]1OC(C)=O`, for which the Activity entry in data set [1], in data set [2], in data set [3], in data set [5], in data set [6] and in data set [7] was “Dose-dependent effect” in each case. The values for the IC50 in data set [4] and in data set [8] were 2.95 µM and 8.5 µM, respectively.

As to `CNC(=O)[C@]12CC[C@@H](C)[C@H](C)[C@H]1C1=CC[C@@H]3[C@@]4(C)C[C@@H](OC(C)=O)[C@H](OC(C)=O)[C@@](C)(COC(C)=O)[C@@H]4CC[C@@]3(C)[C@]1(C)CC2`, the Activity result in data set [1], in data set [2], in data set [3], in data set [5], in data set [6] and in data set [7] was “Dose-dependent effect” in each case. Moreover, inhibition in data set [4] was half-maximal at 1.1 µM (IC50).

For the compound `C[C@H]1[C@H](C)CC[C@@]23CC[C@]4(C)[C@](OC2=O)([C@H](F)C[C@@H]2[C@@]5(C)C(C=O)=C[C@@](C)(COC(=O)CCC(=O)O)[C@@H]5CC[C@]24C)[C@H]13`, the Activity entry in data set [1], in data set [2], in data set [3], in data set [5], in data set [6] and in data set [7] was “Dose-dependent effect” each time. In addition, the IC50 in data set [4] worked out at 3.48 µM; in data set [8], 6.35 µM.

For `COC(=O)[C@H](C)N1C(=O)[C@]23CC[C@@H](C)[C@H](C)[C@H]2[C@]12[C@H](F)C[C@@H]1[C@@]4(C)C[C@@H](OC(C)=O)[C@H](OC(C)=O)[C@@](C)(COC(C)=O)[C@@H]4CC[C@@]1(C)[C@]2(C)CC3`, the Activity result in data set [1], in data set [2], in data set [3], in data set [5], in data set [6] and in data set [7] was “Dose-dependent effect” throughout. Moreover, the figures for the IC50 in data set [4] and in data set [8] were 3.97 µM and 6.37 µM, respectively.

Take `C[C@H]1[C@H](C)CC[C@@]23CC[C@]4(C)[C@](OC2=O)([C@H](F)C[C@@H]2[C@@]5(C)C[C@@H](O)[C@H](O)[C@@](C)(CO)[C@@H]5CC[C@]24C)[C@H]13`: the Activity result in data set [1], in data set [2], in data set [3], in data set [5], in data set [6] and in data set [7] was “Dose-dependent effect” each time. Besides, the IC50 in data set [4] was found to be 60.2 µM; in data set [8], 51.2 µM.

With `C[C@H]1[C@H](C)CC[C@@]23CC[C@]4(C)[C@](OC2=O)([C@H](F)C[C@@H]2[C@@]5(C)C(C#N)=C[C@@](C)(CO)[C@@H]5CC[C@]24C)[C@H]13`, the Activity entry in data set [1], in data set [2], in data set [3], in data set [5], in data set [6] and in data set [7] was “Dose-dependent effect” in each case. The compound also showed an IC50 in data set [4] of 7.5 µM.

Regarding `COC(=O)[C@H](C)NC(=O)[C@]12CC[C@@H](C)[C@H](C)[C@H]1C1=CC[C@@H]3[C@@]4(C)C[C@@H](OC(C)=O)[C@H](OC(C)=O)[C@@](C)(COC(C)=O)[C@@H]4CC[C@@]3(C)[C@]1(C)CC2`, the Activity entry in data set [1], in data set [2], in data set [3], in data set [5], in data set [6] and in data set [7] was “Dose-dependent effect” each time. Besides, the IC50 in data set [4] was found to be 1.07 µM.

Consider `CC(=O)OC[C@@]1(C)[C@@H]2CC[C@]3(C)[C@H](C[C@@H](F)[C@]45OC(=O)[C@@]6(CC[C@@H](C)[C@H](C)[C@H]64)CC[C@]53C)[C@@]2(C)CC(=O)[C@@H]1OC(C)=O`, for which the Activity result in data set [1], in data set [2], in data set [3], in data set [5], in data set [6] and in data set [7] was “Dose-dependent effect” throughout. In data set [4], this compound yielded an IC50 of 11.7 µM.

In the case of `CC(=O)OC[C@@]1(C)[C@@H]2CC[C@]3(C)[C@H](CC=C4[C@@H]5[C@@H](C)[C@H](C)CC[C@]5(C(N)=O)CC[C@]43C)[C@@]2(C)C[C@@H](OC(C)=O)[C@@H]1OC(C)=O`, the Activity result in data set [1], in data set [2], in data set [3], in data set [5], in data set [6] and in data set [7] was “Dose-dependent effect” in each case. This compound also registered an IC50 in data set [4] of 1.65 µM.

Consider `CC(=O)OC[C@@]1(C)[C@@H]2CC[C@]3(C)[C@H](CC=C4[C@@H]5[C@@H](C)[C@H](C)CC[C@]5(C(=O)O)CC[C@]43C)[C@@]2(C)C[C@@H](OC(C)=O)[C@@H]1OC(C)=O`, for which the Activity entry in data set [1], in data set [2], in data set [3], in data set [5], in data set [6] and in data set [7] was “Dose-dependent effect” each time. In data set [4], this compound returned an IC50 of 6.1 µM.

For orientation: IC50 means the concentration at which inhibition is half-maximal. A high value points to weaker potency in that assay.
